Measurements taken from patent US10206902B2, “Mono- or di-substituted indoles as dengue viral replication inhibitors” (priority 2014, dated 2019).

Assay: Chiral stability of Enantiomer 1A at pH 7.4 (ee% by chiral SFC)
Format: physicochemical
Details: buffered solution pH 7.4, 5 μM
Procedure: The chiral stability of Enantiomer 1A (R═OMe) was evaluated by determination of the enantiomeric excess (ee %) after incubation for 24 h and 48 h in a buffered solution at pH 7.4 at 40° C. and 60° C. To assess the influence of the methoxy-substituent of Enantiomer 1A (R═OMe) on the stability against racemization, the chiral stability of Enantiomer 1′A (R═H) was tested under the same conditions.
To this end, 5 μM buffered (pH=7.4) solutions of 1A and 1′A were prepared by mixing 25 μL of a 100 μM solution of 1A or 1′A in DMSO with 475 μL aqueous buffer pH 7.4. Samples were taken 24 h and 48 h after incubation at 40° C. and 60° C. The analytical samples were analyzed by Chiral SFC (MS detection) and the chiral purity was expressed as the enantiomeric excess (ee %=% enantiomer A−% enantiomer B).

With `COc1cc(NC(C(=O)c2c[nH]c3cc(F)ccc23)c2ccc(F)cc2OC)cc(OCCO)c1` (single isomer, unassigned) [Compound 1A, 1-(6-fluoro-1H-indol-3-yl)-2-(4-fluoro-2-methoxyphenyl)-2-((3-(2-hydroxyethoxy)-5-methoxyphenyl)amino)ethanone] the “ee% (enantiomeric excess)” value (40° C., 24 h) was 100%, the “ee% (enantiomeric excess)” value (40° C., 48 h) was 100% and the “ee% (enantiomeric excess)” value (60° C., 24 h) was 100%. The “ee% (enantiomeric excess)” value (60° C., 48 h) was 96%.
